The record followed here is US3981814A, “Bacteriostatic substituted benzanilide compositions and methods for their use” (Givaudan Corporation, priority 1975, dated 1976).

The assay concerns Staphylococcus aureus. Briefly: In vitro soap bacteriostatic test (agar dilution, spot inoculation, 35°, 48 hours). The conditions noted are these: for MIC: Staphylococcus aureus, without soap, read-out: Compound Activity Without Soap: minimum concentration where S. aureus growth is completely inhibited; for Compound Activity With Soap: minimum concentration where S. aureus growth is completely inhibited: ratio of soap to compound 100:1. In kind it is cell-based. As to the method: The antibacterial properties of the compounds prepared in Examples 1 - 14 were tested in soap. The in vitro soap bacteriostatic tests were conducted as follows: The compound is dissolved in a suitable solvent, usually dimethylformamide, to give a 6% solution. One-half ml. aliquot was added to 100 ml. of 3% solution of bar soap stock solution. The solid soap used was a neutral white toilet soap of the "LUX" type. The fatty acids in this soap were of the following composition: This yields an aqueous soap solution containing 30,000 mcg./ml. soap and 300 mcg./ml. compound. The soap/compound ratio in the latter is 100/l. A two-fold serial dilution series is prepared with this solution using sterile distilled water in test tubes such that the final volume in each tube is 2.0 ml. To each test tube is added 28 ml. of molten Dextrose Trypticase Extract Agar (B.B.L.). The tube contents were poured into sterile Petri plates and allowed to harden. The highest final concentration of compound in the serial dilution series is 20 mcg./ml. Plates were spot inoculated with a broth culture of Staphylococcus aureus and incubated at 35° for 48 hours. The lowest concentration completely inhibiting growth of the test organism, in mcg./ml. is recorded as the bacteriostatic concentration of the compound. Tests in the absence of soap are made in a similar manner except that all dilutions are made in solvent. The final concentration in the agar should not be greater than 5%. The results of these tests with the compounds of the present invention as compared with compounds having chemical structures closely related to the compounds of the present invention (designated by the symbol "C") are set forth in the Table. Column 1 contains the data as to the activity of the test solution without soap; column 2 refers to tests in which the ratio of soap to compound is 100:1. […] Growth is observed at the next lower concentration.

Values after ≈ are worked out from the molar mass of the structure shown.

As for `O=C(Nc1ccc(Cl)c(C(F)(F)F)c1)c1cccc(Br)c1` [Compound 11], the MIC is greater than 20 µg/mL and the “Compound Activity With Soap: minimum concentration where S. aureus growth is completely inhibited” value was 2.5 µg/mL.
On the same counts, the results for `O=C(Nc1ccc(Cl)c(Cl)c1)c1ccc(Cl)c(Cl)c1` [Compound C35] are greater than 10 µg/mL and “B (Inactive at 10 mcg./ml. (highest concentration tested))”.
On the same counts, the results for `O=C(Nc1cc(C(F)(F)F)cc(C(F)(F)F)c1)c1ccccc1Cl` [Compound C26] are greater than 20 µg/mL and 10.0 µg/mL.
On the same counts, the results for `O=C(Nc1ccc(Cl)c(C(F)(F)F)c1)c1ccc(Cl)c(Cl)c1` [Compound 12] are greater than 20 µg/mL and 0.312 µg/mL.
With `O=C(Nc1cccc(Cl)c1)c1ccc(Cl)c(Cl)c1` [Compound C34], the MIC was greater than 20 µg/mL and the “Compound Activity With Soap: minimum concentration where S. aureus growth is completely inhibited” value is given as “A (Inactive at 20 mcg./ml. (highest concentration tested))”.
In the case of `O=C(Nc1ccc(Br)c(C(F)(F)F)c1)c1cccc(Br)c1` [Compound 14, 3,4'-dibromo-α,α,α-trifluoro-m-benzotoluidide], the MIC was greater than 20 µg/mL and the “Compound Activity With Soap: minimum concentration where S. aureus growth is completely inhibited” value is 1.25 µg/mL.
With `O=C(Nc1ccc(Cl)cc1C(F)(F)F)c1cccc(Cl)c1` [Compound C21], the MIC is greater than 10 µg/mL and the “Compound Activity With Soap: minimum concentration where S. aureus growth is completely inhibited” value was “B (Inactive at 10 mcg./ml. (highest concentration tested))”.
On the same counts, the results for `O=C(Nc1cccc(C(F)(F)F)c1)c1cccc(C(F)(F)F)c1` [Compound C4] are greater than 20 µg/mL and 10.0 µg/mL.
`O=C(Nc1cc(C(F)(F)F)cc(C(F)(F)F)c1)c1cccc(Br)c1` [Compound C29]: the MIC was greater than 10 µg/mL and the “Compound Activity With Soap: minimum concentration where S. aureus growth is completely inhibited” value is listed as “B (Inactive at 10 mcg./ml. (highest concentration tested))”.
On the same counts, the results for `O=C(Nc1cc(C(F)(F)F)ccc1Cl)c1cccc(Br)c1` [Compound C19] are greater than 10 µg/mL and “B (Inactive at 10 mcg./ml. (highest concentration tested))”.
On the same counts, the results for `O=C(Nc1ccc(Cl)c(Cl)c1)c1ccc(C(F)(F)F)cc1` [Compound C38] are greater than 20 µg/mL and 10.0 µg/mL.
Take `O=C(Nc1ccc(Cl)c(Cl)c1)c1ccc(Cl)cc1` [Compound C31]: the MIC is greater than 20 µg/mL and the “Compound Activity With Soap: minimum concentration where S. aureus growth is completely inhibited” value turned out to be 10.0 µg/mL.
On the same counts, the results for `N#CSc1ccc(NC(=O)c2ccc(Cl)cc2)cc1C(F)(F)F` [Compound C23] are greater than 20 µg/mL and 5.0 µg/mL.
For `O=C(Nc1ccc(C(F)(F)F)cc1)c1ccc(Cl)cc1` [Compound C9], the MIC is greater than 10 µg/mL and the “Compound Activity With Soap: minimum concentration where S. aureus growth is completely inhibited” value is “B (Inactive at 10 mcg./ml. (highest concentration tested))”.
On the same counts, the results for `O=C(Nc1ccc(Cl)c(C(F)(F)F)c1)c1ccccc1Cl` [Compound C12] are greater than 20 µg/mL and 10.0 µg/mL.
On the same counts, the results for `O=C(Nc1cccc(Cl)c1)c1ccc(Cl)cc1` [Compound C30] are greater than 20 µg/mL and 5.0 µg/mL.
On the same counts, the results for `O=C(Nc1ccc(C(F)(F)F)cc1)c1ccc(F)cc1` [Compound C10] are 20 µg/mL (≈ 70.6 µM) and 5.0 µg/mL.
For the compound `CC(C)(C)c1ccc(C(=O)Nc2ccc(Cl)c(C(F)(F)F)c2)cc1` [Compound 22], the MIC is greater than 20 µg/mL and the “Compound Activity With Soap: minimum concentration where S. aureus growth is completely inhibited” value came to 2.5 µg/mL.
The matching figures for `CC(C)(C)c1ccc(C(=O)Nc2cccc(C(F)(F)F)c2)cc1` [Compound C39]: greater than 20 µg/mL and 5.0 µg/mL.
On the same counts, the results for `O=C(Nc1cc(C(F)(F)F)ccc1Cl)c1cccc(Cl)c1` [Compound C16] are greater than 10 µg/mL and “B (Inactive at 10 mcg./ml. (highest concentration tested))”.
Regarding `N#CSc1ccc(NC(=O)c2ccc(Cl)c(Cl)c2)cc1C(F)(F)F` [Compound C24], the MIC was greater than 10 µg/mL and the “Compound Activity With Soap: minimum concentration where S. aureus growth is completely inhibited” value is “B (Inactive at 10 mcg./ml. (highest concentration tested))”.
With `O=C(Nc1ccc(Br)c(C(F)(F)F)c1)c1ccc(Cl)c(Cl)c1` [Compound 16, 4'-bromo-3,4-dichloro-α,α,α-trifluoro-m-benzotoluidide], the MIC was greater than 20 µg/mL and the “Compound Activity With Soap: minimum concentration where S. aureus growth is completely inhibited” value was found to be 0.312 µg/mL.
The matching figures for `O=C(Nc1ccccc1C(F)(F)F)c1ccccc1Cl` [Compound C8]: greater than 10 µg/mL and “B (Inactive at 10 mcg./ml. (highest concentration tested))”.
The matching figures for `O=C(Nc1cccc(C(F)(F)F)c1)c1ccccc1` [Compound C5]: greater than 20 µg/mL and 10.0 µg/mL.
The matching figures for `O=C(Nc1cccc(C(F)(F)F)c1)c1ccc(F)cc1` [Compound C3]: greater than 20 µg/mL and 10.0 µg/mL.
Turning to `O=C(Nc1cccc(C(F)(F)F)c1)c1cccc(Cl)c1` [Compound 2], the MIC was greater than 20 µg/mL and the “Compound Activity With Soap: minimum concentration where S. aureus growth is completely inhibited” value turned out to be 2.5 µg/mL.
Regarding `O=C(Nc1ccc(Cl)c(C(F)(F)F)c1)c1ccc(Br)cc1` [Compound 10, 4-bromo-4'-chloro-α,α,α-trifluoro-m-benzotoluidide], the MIC was 0.625 µg/mL (≈ 1.65 µM) and the “Compound Activity With Soap: minimum concentration where S. aureus growth is completely inhibited” value was 0.312 µg/mL.
On the same counts, the results for `O=C(Nc1ccc(Cl)c(C(F)(F)F)c1)c1ccc(C(F)(F)F)cc1` [Compound 7, 4'-Chloro-α,α,α,α',α ',α ', -hexafluoro-p-tolu-m-toluidide] are 0.625 µg/mL (≈ 1.7 µM) and 0.312 µg/mL.
Turning to `O=C(Nc1cc(C(F)(F)F)cc(C(F)(F)F)c1)c1cccc(Cl)c1` [Compound C25], the MIC is greater than 20 µg/mL and the “Compound Activity With Soap: minimum concentration where S. aureus growth is completely inhibited” value is 10.0 µg/mL.
On the same counts, the results for `O=C(Nc1cccc(C(F)(F)F)c1)c1ccccc1Cl` [Compound C1] are greater than 20 µg/mL and 10.0 µg/mL.
The matching figures for `O=C(Nc1cccc(C(F)(F)F)c1)c1cccc(Br)c1` [Compound 4]: greater than 20 µg/mL and 2.5 µg/mL.
The matching figures for `O=C(Nc1ccc(Cl)c(C(F)(F)F)c1)c1cccc(Cl)c1` [Compound 9, 3,4'-dichloro-α,α,α-trifluoro-m-benzo-toluidide]: greater than 20 µg/mL and 0.625 µg/mL.
Consider `O=C(Nc1cccc(C(F)(F)F)c1)c1ccccc1Br` [Compound C2], for which the MIC was greater than 10 µg/mL and the “Compound Activity With Soap: minimum concentration where S. aureus growth is completely inhibited” value is given as “B (Inactive at 10 mcg./ml. (highest concentration tested))”.
On the same counts, the results for `O=C(Nc1cccc(C(F)(F)F)c1)c1ccc(Cl)cc1` [Compound 1, 4-Chloro-3'-(trifluoromethyl) benzanilide] are 10 µg/mL (≈ 33.4 µM) and 0.625 µg/mL.
The matching figures for `O=C(Nc1ccc(Cl)c(C(F)(F)F)c1)c1ccccc1Br` [Compound C14]: greater than 10 µg/mL and “B (Inactive at 10 mcg./ml. (highest concentration tested))”.
The matching figures for `O=C(Nc1cccc(C(F)(F)F)c1)c1cc(Cl)cc(Cl)c1` [Compound 6]: greater than 20 µg/mL and 2.5 µg/mL.
In the case of `O=C(Nc1cc(C(F)(F)F)cc(C(F)(F)F)c1)c1ccc(Cl)c(Cl)c1` [Compound 21, 3,4-dichloro-α,α,α,α',α',α'-hexafluorobenzo-3',5'-xylidide], the MIC is greater than 20 µg/mL and the “Compound Activity With Soap: minimum concentration where S. aureus growth is completely inhibited” value worked out at 0.312 µg/mL.
The matching figures for `O=C(Nc1ccc(Cl)c(Cl)c1)c1ccc(Br)cc1` [Compound C37]: 10 µg/mL (≈ 29 µM) and 20.0 µg/mL.
The matching figures for `O=C(Nc1cccc(C(F)(F)F)c1)c1ccc(Cl)c(Cl)c1` [Compound 5]: greater than 20 µg/mL and 2.5 µg/mL.
